Square brackets hold non-standard residues; d marks the D form. Peptide text beside a SMILES is read from it. dTrp(2-Me) = Cc1[nH]c2ccccc2c1C[C@@H](N)C(=O)O; d2Nal = N[C@H](Cc1ccc2ccccc2c1)C(=O)O

For assay [1] the following is noted: orally active; cited from earlier work.
The subject of assay [2] is free-feeding rats. As to conditions: intracerebroventricular administration; cited from earlier work.
The subject of assay [3] is young women with anorexia nervosa. As to conditions: cited from earlier work.
The subject of assay [4] is satiated rats. As to conditions: s.c.; cited from earlier work.
Assay [5] concerns healthy, young male subjects. As to conditions: 100 mg single oral dose in a solution of water, fasted state; four subjects on active.
Description: The test compound or placebo was administered orally in a solution of water to the subjects in a fasted state. The doses evaluated were 0.3, 1, 3, 10, 30 and 100 mg of the test compound or placebo. Each participant was studied at only one dose level.
The test system of assay [6] is rats. As to conditions: intracerebroventricular; cited from earlier work.

On to `CC(C)(N)C(=O)N[C@H](COCc1ccccc1)C(=O)N1CCC2(CC1)CN(S(C)(=O)=O)c1ccccc12` [MK-677], for which the diet-induced catabolism result in assay [1] was “reverses diet-induced catabolism”.

`C[C@H](NC(=O)[C@@H](Cc1ccc2ccccc2c1)NC(=O)[C@@H](C)N)C(=O)N[C@@H](Cc1c[nH]c2ccccc12)C(=O)N[C@H](Cc1ccccc1)C(=O)N[C@@H](CCCCN)C(N)=O` [KP-102] (H-[dA][d2Nal]AW[dF]K-NH2): the food intake result in assay [2] is “increased food intake”.

For “recombinant growth hormone: recombinant growth hormone”, in assay [3], the IGF-1 levels result is reported as “normalizes IGF-1 levels”, the body weight result is “increases body weight” and the eating behavior result was “improves eating behavior”.

Turning to `Cc1[nH]c2ccccc2c1C[C@@H](NC(=O)[C@@H](N)Cc1cnc[nH]1)C(=O)N[C@@H](C)C(=O)N[C@@H](Cc1c[nH]c2ccccc12)C(=O)N[C@H](Cc1ccccc1)C(=O)N[C@@H](CCCCN)C(N)=O` [hexarelin] (H-H[dTrp(2-Me)]AW[dF]K-NH2), in assay [4], the GH release entry is listed as “dose dependently stimulated” and the feeding behavior result is “dose dependently stimulated”.

In the case of `CC(C)(N)C(=O)N[C@H](COCc1ccc(F)cc1F)C(=O)N1CCC2=NN(CC(F)(F)F)C(=O)[C@]2(Cc2ccccn2)C1.O=C(O)C(O)C(O)C(=O)O` [test compound, (L)-(+)-tartaric acid salt of 2-amino-N-(1-(R)-(2,4-difluoro-benzyloxymethyl)-2-oxo-2-(3-oxo-3a-(R)-pyridin-2-ylmethyl-2-(2,2,2-trifluoro-ethyl)-2,3,3a,4,6,7-hexahydro-pyrazolo-[4,3-c]pyridin-5-yl)-ethyl)-2-methyl-propionamide], in assay [5], the “subjects who self-reported feeling hungry (case report forms)” value was “two of the four subjects”.

GHRP-6: in assay [4], the GH release result is “dose dependently stimulated” and the feeding behavior entry is reported as “dose dependently stimulated”. In assay [6], the eating entry is recorded as “stimulated eating” and the “plasma growth hormone responses” value is on record as “without affecting plasma growth hormone responses”.

The values above are taken from patent US20020086865A1, “Use of growth hormone secretagogues for stimulating or increasing appetite” (priority 2000, published 2002).
